Starred links: 1 amine or outer side, 2 acyl side, 3 side chain; linkers in the order of their positions; H or OH if unused. Positions of bridges follow the written chain, without caps; N, C: chain ends. Non-standard residues stand in square brackets, D forms with d. Residues, ends and D or L forms follow the SMILES beside them. Groups on a side chain read outwards from the residue. *: point of attachment. Trp(1-CH2CO2Me) = COC(=O)Cn1cc(C[C@H](N)C(=O)O)c2ccccc21; Trp(1-CH2COOH) = N[C@@H](Cc1cn(CC(=O)O)c2ccccc12)C(=O)O; X31 = S=C(Nc1cccc2c(Cl)c[nH]c12)*; Hyp = O=C(O)[C@@H]1C[C@@H](O)CN1; X47 = O=C(c1cn2c(n1)sc1ccccc12)*; X87 = FC(F)(F)c1ccccc1NC(=S)*; NMeNle = CCCC[C@H](NC)C(=O)O; X52 = c1ccc2c(N*)c[nH]c2c1; NMeA = CN[C@@H](C)C(=O)O; X71 = c1cc2c(cc1N*)OCCO2; Dab = NCC[C@H](N)C(=O)O; Dap = NC[C@H](N)C(=O)O; X46 = COc1ccc(Cl)cc1N*; X77 = Clc1cccc(N*)c1Cl; X89 = O=C(Oc1ccccc1)*; CO = O=C([*:1])[*:2]
target: T1, PD-1/PD-L1 (Homo sapiens, UniProt Q9NZQ7); experiment: PD-1/PD-L1 Homogenous Time-Resolved Fluorescence (HTRF) binding assay; details: not given
T1 construct: TVMV protease site linker (C); made in house; host or cells: HEK293T cells
Procedure, shortened: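 HTRF read-out using europium cryptate anti-Ig (1 nM) and APC anti-His (20 nM) on extracellular-domain fusion proteins in dPBS/0.1% BSA/0.05% Tween-20. Inhibitor first incubated 15 min with 10 nM PD-L1-His, followed by 20 nM PD-1-Ig for another 15 min.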

T1 sequence (Q9NZQ7 18-239): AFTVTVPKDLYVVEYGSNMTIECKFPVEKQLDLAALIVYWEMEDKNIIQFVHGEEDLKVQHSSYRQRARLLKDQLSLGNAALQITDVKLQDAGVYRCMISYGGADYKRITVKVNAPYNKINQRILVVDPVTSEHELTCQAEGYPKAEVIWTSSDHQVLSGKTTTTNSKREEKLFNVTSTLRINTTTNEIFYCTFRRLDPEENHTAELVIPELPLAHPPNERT

SMILES	IC50 [nM]
CCCC[C@H]1C(=O)N(C)[C@@H](CCCC)C(=O)N[C@@H](CC(C)C)C(=O)N[C@H](C(=O)NCC(N)=O)CSCC(=O)N[C@@H](Cc2ccc(O)cc2)C(=O)N(C)[C@@H](C)C(=O)N[C@@H](CC(N)=O)C(=O)N2CCC[C@H]2C(=O)N[C@@H](CNC(=O)Nc2cccc(Cl)c2Cl)C(=O)N[C@@H](CC(C)C)C(=O)N2C[C@H](O)C[C@H]2C(=O)N[C@@H](Cc2c[nH]c3ccccc23)C(=O)N[C@@H](CCNC(=O)Nc2cccc(Cl)c2Cl)C(=O)N[C@@H](Cc2cn(CC(=O)O)c3ccccc23)C(=O)N1C [Example 1084] ({CH2CO}-Y[NMeA]NP[Dap]([CO-X77])L[Hyp]W[Dab]([CO-X77])[Trp(1-CH2COOH)][NMeNle][NMeNle]LCG-NH2; thioether N-14)	2.6
CCCC[C@H]1C(=O)N(C)[C@@H](CCCC)C(=O)N[C@@H](CC(C)C)C(=O)N[C@H](C(=O)NCC(N)=O)CSCC(=O)N[C@@H](Cc2ccc(O)cc2)C(=O)N(C)[C@@H](C)C(=O)N[C@@H](CC(N)=O)C(=O)N2CCC[C@H]2C(=O)N[C@@H](CNC(=O)Oc2ccccc2)C(=O)N[C@@H](CC(C)C)C(=O)N2C[C@H](O)C[C@H]2C(=O)N[C@@H](Cc2c[nH]c3ccccc23)C(=O)N[C@@H](CCNC(=O)Oc2ccccc2)C(=O)N[C@@H](Cc2cn(CC(=O)OC)c3ccccc23)C(=O)N1C [Example 1013] ({CH2CO}-Y[NMeA]NP[Dap](X89)L[Hyp]W[Dab](X89)[Trp(1-CH2CO2Me)][NMeNle][NMeNle]LCG-NH2; thioether N-14)	5.2

same assay, conditions: PD-L1-His 10 nM pre-incubated with inhibitor, PD-1-Ig 20 nM; read-out: HTRF IC50

SMILES	IC50 [nM]
CCCC[C@H]1C(=O)N(C)[C@@H](CCCC)C(=O)N[C@@H](CC(C)C)C(=O)N[C@H](C(=O)NCC(N)=O)CSCC(=O)N[C@@H](Cc2ccc(O)cc2)C(=O)N(C)[C@@H](C)C(=O)N[C@@H](CC(N)=O)C(=O)N2CCC[C@H]2C(=O)N[C@@H](CNC(=S)Nc2ccccc2C(F)(F)F)C(=O)N[C@@H](CC(C)C)C(=O)N2C[C@H](O)C[C@H]2C(=O)N[C@@H](Cc2c[nH]c3ccccc23)C(=O)N[C@@H](CCNC(=S)Nc2ccccc2C(F)(F)F)C(=O)N[C@@H](Cc2cn(CC(=O)O)c3ccccc23)C(=O)N1C [Example 1016] ({CH2CO}-Y[NMeA]NP[Dap](X87)L[Hyp]W[Dab](X87)[Trp(1-CH2COOH)][NMeNle][NMeNle]LCG-NH2; thioether N-14)	3
CCCC[C@H]1C(=O)N(C)[C@@H](CCCC)C(=O)N[C@@H](CC(C)C)C(=O)N[C@H](C(=O)NCC(N)=O)CSCC(=O)N[C@@H](Cc2ccc(O)cc2)C(=O)N(C)[C@@H](C)C(=O)N[C@@H](CC(N)=O)C(=O)N2CCC[C@H]2C(=O)N[C@@H](CNC(=O)Nc2ccc3c(c2)OCCO3)C(=O)N[C@@H](CC(C)C)C(=O)N2C[C@H](O)C[C@H]2C(=O)N[C@@H](Cc2c[nH]c3ccccc23)C(=O)N[C@@H](CCNC(=O)Nc2ccc3c(c2)OCCO3)C(=O)N[C@@H](Cc2cn(CC(=O)O)c3ccccc23)C(=O)N1C [Example 3059] ({CH2CO}-Y[NMeA]NP[Dap]([CO-X71])L[Hyp]W[Dab]([CO-X71])[Trp(1-CH2COOH)][NMeNle][NMeNle]LCG-NH2; thioether N-14)	3
CCCC[C@H]1C(=O)N(C)[C@@H](CCCC)C(=O)N[C@@H](CC(C)C)C(=O)N[C@H](C(=O)NCC(N)=O)CSCC(=O)N[C@@H](Cc2ccc(O)cc2)C(=O)N(C)[C@@H](C)C(=O)N[C@@H](CC(N)=O)C(=O)N2CCC[C@H]2C(=O)N[C@@H](CNC(=O)Nc2c[nH]c3ccccc23)C(=O)N[C@@H](CC(C)C)C(=O)N2C[C@H](O)C[C@H]2C(=O)N[C@@H](Cc2c[nH]c3ccccc23)C(=O)N[C@@H](CCNC(=O)Nc2c[nH]c3ccccc23)C(=O)N[C@@H](Cc2cn(CC(=O)O)c3ccccc23)C(=O)N1C [Example 3060] ({CH2CO}-Y[NMeA]NP[Dap]([CO-X52])L[Hyp]W[Dab]([CO-X52])[Trp(1-CH2COOH)][NMeNle][NMeNle]LCG-NH2; thioether N-14)	2.7
CCCC[C@H]1C(=O)N(C)[C@@H](CCCC)C(=O)N[C@@H](CC(C)C)C(=O)N[C@H](C(=O)NCC(N)=O)CSCC(=O)N[C@@H](Cc2ccc(O)cc2)C(=O)N(C)[C@@H](C)C(=O)N[C@@H](CC(N)=O)C(=O)N2CCC[C@H]2C(=O)N[C@@H](CNC(=S)Nc2cccc3c(Cl)c[nH]c23)C(=O)N[C@@H](CC(C)C)C(=O)N2C[C@H](O)C[C@H]2C(=O)N[C@@H](Cc2c[nH]c3ccccc23)C(=O)N[C@@H](CCNC(=S)Nc2cccc3c(Cl)c[nH]c23)C(=O)N[C@@H](Cc2cn(CC(=O)O)c3ccccc23)C(=O)N1C [Example 3019] ({CH2CO}-Y[NMeA]NP[Dap](X31)L[Hyp]W[Dab](X31)[Trp(1-CH2COOH)][NMeNle][NMeNle]LCG-NH2; thioether N-14)	3.3
CCCC[C@H]1C(=O)N(C)[C@@H](CCCC)C(=O)N[C@@H](CC(C)C)C(=O)N[C@H](C(=O)NCC(N)=O)CSCC(=O)N[C@@H](Cc2ccc(O)cc2)C(=O)N(C)[C@@H](C)C(=O)N[C@@H](CC(N)=O)C(=O)N2CCC[C@H]2C(=O)N[C@@H](CNC(=O)Nc2cc(Cl)ccc2OC)C(=O)N[C@@H](CC(C)C)C(=O)N2C[C@H](O)C[C@H]2C(=O)N[C@@H](Cc2c[nH]c3ccccc23)C(=O)N[C@@H](CCN)C(=O)N[C@@H](Cc2cn(CC(=O)O)c3ccccc23)C(=O)N1C [Example 1074] ({CH2CO}-Y[NMeA]NP[Dap]([CO-X46])L[Hyp]W[Dab][Trp(1-CH2COOH)][NMeNle][NMeNle]LCG-NH2; thioether N-14)	6.3
CCCC[C@H]1C(=O)N(C)[C@@H](CCCC)C(=O)N[C@@H](CC(C)C)C(=O)N[C@H](C(=O)NCC(N)=O)CSCC(=O)N[C@@H](Cc2ccc(O)cc2)C(=O)N(C)[C@@H](C)C(=O)N[C@@H](CC(N)=O)C(=O)N2CCC[C@H]2C(=O)N[C@@H](CNC(=O)c2cn3c(n2)sc2ccccc23)C(=O)N[C@@H](CC(C)C)C(=O)N2C[C@H](O)C[C@H]2C(=O)N[C@@H](Cc2c[nH]c3ccccc23)C(=O)N[C@@H](CCNC(=O)c2cn3c(n2)sc2ccccc23)C(=O)N[C@@H](Cc2cn(CC(=O)OC)c3ccccc23)C(=O)N1C [Example 2001] ({CH2CO}-Y[NMeA]NP[Dap](X47)L[Hyp]W[Dab](X47)[Trp(1-CH2CO2Me)][NMeNle][NMeNle]LCG-NH2; thioether N-14)	184
